Laboratory results taken from paper PMC4770715, “LIM kinase inhibitors disrupt mitotic microtubule organization and impair tumor cell proliferation” (Oncotarget, 2015).

Legend:
Assay in all cases: biochemical
Design in all cases: KINOMEscan active-site competition binding, percent of control (100 = no competition)
Conditions in all cases: competition binding, percent control
EPHA8 = EPHA8 (Homo sapiens, UniProt P29322)
FER = FER (Homo sapiens, UniProt P16591)
CDK9 = CDK9 (Homo sapiens, UniProt P50750)
CDK9, sequence (P50750 whole entry): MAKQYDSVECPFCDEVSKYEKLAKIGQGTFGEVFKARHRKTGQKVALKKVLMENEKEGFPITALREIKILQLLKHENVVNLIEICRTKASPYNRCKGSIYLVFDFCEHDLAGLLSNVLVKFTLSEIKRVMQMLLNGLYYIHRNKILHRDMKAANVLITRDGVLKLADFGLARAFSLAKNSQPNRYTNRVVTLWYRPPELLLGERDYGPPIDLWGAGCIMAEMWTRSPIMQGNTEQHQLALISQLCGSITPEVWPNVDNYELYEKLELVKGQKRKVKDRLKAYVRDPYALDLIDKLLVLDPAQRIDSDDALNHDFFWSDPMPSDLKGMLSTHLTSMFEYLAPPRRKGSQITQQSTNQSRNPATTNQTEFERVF

PLK3 = PLK3 (Homo sapiens, UniProt Q9H4B4)
MAPKAPK2 = MAPKAPK2 (Homo sapiens, UniProt P49137)
[1] = target: T1, RPS6KA5(Kin.Dom.2-C-terminal) (Homo sapiens, UniProt O75582)
T1 construct: Kin.Dom.2-C-terminal
T1 sequence (O75582 whole entry): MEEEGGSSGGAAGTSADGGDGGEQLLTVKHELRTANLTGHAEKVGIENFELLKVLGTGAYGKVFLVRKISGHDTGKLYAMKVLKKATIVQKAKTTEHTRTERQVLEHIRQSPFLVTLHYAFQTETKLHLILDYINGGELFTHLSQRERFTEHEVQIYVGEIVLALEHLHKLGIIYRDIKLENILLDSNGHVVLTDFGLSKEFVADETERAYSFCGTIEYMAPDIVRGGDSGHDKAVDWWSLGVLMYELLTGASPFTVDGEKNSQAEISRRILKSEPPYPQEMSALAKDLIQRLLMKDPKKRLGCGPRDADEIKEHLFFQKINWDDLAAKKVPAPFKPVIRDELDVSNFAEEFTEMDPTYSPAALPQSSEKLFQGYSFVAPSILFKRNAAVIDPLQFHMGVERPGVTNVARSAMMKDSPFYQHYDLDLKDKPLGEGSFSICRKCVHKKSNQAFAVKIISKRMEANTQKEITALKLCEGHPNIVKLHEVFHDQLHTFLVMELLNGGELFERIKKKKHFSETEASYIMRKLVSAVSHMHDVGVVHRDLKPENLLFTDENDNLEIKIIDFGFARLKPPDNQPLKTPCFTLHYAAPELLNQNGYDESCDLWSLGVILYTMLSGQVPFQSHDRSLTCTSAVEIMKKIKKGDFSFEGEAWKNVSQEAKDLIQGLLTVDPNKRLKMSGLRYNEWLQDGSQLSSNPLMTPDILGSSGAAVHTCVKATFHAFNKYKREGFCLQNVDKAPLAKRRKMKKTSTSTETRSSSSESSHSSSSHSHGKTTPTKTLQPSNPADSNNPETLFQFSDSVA

YANK3 = target: T2, YANK3 (Homo sapiens, UniProt Q86UX6)
T2 construct: gene STK32C
T2 sequence (Q86UX6 whole entry): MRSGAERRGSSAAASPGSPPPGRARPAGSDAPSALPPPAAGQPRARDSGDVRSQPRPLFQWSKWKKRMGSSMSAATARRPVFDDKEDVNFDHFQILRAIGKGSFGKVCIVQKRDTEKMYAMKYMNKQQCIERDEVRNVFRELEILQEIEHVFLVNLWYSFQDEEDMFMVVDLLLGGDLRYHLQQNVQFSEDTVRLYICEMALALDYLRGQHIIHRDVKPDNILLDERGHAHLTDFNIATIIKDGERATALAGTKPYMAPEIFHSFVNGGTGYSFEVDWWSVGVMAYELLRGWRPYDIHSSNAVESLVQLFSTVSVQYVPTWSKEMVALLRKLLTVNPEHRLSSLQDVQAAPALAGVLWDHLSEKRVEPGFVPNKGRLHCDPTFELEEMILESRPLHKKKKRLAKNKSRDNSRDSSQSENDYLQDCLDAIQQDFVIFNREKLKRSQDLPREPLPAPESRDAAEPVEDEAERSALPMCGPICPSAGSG

CDC2L5 = target: T3, CDC2L5 (Homo sapiens, UniProt Q14004)
T3 construct: gene CDK13

HPK1 = target: T4, HPK1 (Homo sapiens, UniProt Q92918)
T4 construct: gene MAP4K1
T4 sequence (Q92918 whole entry): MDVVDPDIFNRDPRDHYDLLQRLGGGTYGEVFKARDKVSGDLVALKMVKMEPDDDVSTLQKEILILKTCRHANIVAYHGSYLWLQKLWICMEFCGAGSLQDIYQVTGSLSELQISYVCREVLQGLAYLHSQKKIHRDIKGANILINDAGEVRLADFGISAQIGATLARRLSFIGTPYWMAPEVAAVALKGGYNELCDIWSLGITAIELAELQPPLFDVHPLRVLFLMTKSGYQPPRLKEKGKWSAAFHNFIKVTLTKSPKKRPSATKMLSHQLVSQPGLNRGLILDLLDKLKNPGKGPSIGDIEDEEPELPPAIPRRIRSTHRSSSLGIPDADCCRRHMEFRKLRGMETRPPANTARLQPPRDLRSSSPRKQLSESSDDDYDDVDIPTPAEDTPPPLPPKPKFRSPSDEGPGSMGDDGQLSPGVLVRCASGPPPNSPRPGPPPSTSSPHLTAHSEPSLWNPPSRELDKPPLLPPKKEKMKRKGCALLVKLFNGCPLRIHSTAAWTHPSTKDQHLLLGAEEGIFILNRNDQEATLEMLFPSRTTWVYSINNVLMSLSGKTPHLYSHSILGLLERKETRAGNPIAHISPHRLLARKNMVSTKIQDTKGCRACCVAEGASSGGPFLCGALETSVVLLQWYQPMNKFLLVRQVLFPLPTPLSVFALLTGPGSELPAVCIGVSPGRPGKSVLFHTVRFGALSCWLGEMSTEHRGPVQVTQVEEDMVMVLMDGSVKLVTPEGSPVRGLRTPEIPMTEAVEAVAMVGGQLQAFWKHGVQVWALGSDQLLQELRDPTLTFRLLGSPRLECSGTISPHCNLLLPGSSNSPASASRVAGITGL

CDC2L2 = target: T5, CDC2L2 (Homo sapiens, UniProt Q9UQ88)
T5 construct: gene CDK11A
T5 sequence (Q9UQ88 whole entry): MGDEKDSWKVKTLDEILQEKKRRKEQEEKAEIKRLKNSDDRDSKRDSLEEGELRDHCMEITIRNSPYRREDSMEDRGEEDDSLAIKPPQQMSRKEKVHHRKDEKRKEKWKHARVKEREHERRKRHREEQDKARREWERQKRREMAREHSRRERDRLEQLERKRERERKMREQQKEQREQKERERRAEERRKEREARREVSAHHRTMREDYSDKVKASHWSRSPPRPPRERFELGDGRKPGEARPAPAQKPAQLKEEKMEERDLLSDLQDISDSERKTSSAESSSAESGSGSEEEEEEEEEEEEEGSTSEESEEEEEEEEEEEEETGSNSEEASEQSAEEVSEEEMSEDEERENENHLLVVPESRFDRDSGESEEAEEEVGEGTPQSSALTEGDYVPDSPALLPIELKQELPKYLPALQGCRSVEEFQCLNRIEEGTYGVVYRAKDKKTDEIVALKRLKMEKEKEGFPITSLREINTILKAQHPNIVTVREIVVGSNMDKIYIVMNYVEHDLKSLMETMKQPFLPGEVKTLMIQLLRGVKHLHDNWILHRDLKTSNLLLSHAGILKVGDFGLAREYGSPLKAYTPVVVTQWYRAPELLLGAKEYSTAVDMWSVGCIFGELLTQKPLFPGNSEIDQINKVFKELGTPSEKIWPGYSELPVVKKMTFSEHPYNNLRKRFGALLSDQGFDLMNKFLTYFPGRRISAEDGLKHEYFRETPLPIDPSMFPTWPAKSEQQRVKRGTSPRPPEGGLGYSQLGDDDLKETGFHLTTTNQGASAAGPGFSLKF

KIT(V559D) = KIT(V559D) (Homo sapiens, UniProt P10721, V559D)
ALK = ALK (Homo sapiens, UniProt Q9UM73)
TAOK3 = TAOK3 (Homo sapiens, UniProt Q9H2K8)
CSF1R = CSF1R (Homo sapiens, UniProt P07333)
ROS1 = ROS1 (Homo sapiens, UniProt P08922)
PAK7 = target: T6, PAK7 (Homo sapiens, UniProt Q9P286)
T6 construct: gene PAK5

NEK11 = NEK11 (Homo sapiens, UniProt Q8NG66)
NEK11, sequence (Q8NG66 whole entry): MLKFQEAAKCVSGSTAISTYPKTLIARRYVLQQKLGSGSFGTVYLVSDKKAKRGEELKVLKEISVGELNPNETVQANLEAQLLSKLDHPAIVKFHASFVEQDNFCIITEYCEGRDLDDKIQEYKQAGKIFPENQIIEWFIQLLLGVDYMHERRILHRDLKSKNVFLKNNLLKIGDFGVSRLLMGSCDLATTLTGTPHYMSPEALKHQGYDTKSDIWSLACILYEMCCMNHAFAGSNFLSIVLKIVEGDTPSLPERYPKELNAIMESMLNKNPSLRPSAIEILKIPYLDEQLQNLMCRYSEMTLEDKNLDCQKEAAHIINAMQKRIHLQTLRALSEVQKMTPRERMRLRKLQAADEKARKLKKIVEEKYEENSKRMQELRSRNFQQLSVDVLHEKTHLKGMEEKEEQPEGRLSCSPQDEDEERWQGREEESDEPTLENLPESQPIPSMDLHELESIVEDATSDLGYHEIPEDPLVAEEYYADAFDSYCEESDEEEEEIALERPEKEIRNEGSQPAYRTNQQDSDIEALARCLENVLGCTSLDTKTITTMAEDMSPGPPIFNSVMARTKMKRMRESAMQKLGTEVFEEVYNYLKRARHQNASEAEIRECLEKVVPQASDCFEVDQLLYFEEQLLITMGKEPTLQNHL

KIT(L576P) = KIT(L576P) (Homo sapiens, UniProt P10721, L576P)
MEK1 = target: T7, MEK1 (Homo sapiens, UniProt Q02750)
T7 construct: gene MAP2K1

SIK2 = SIK2 (Homo sapiens, UniProt Q9H0K1)
BRSK1 = BRSK1 (Homo sapiens, UniProt Q8TDC3)
MLK1 = target: T8, MLK1 (Homo sapiens, UniProt P80192)
T8 construct: gene MAP3K9
T8 sequence (P80192 whole entry): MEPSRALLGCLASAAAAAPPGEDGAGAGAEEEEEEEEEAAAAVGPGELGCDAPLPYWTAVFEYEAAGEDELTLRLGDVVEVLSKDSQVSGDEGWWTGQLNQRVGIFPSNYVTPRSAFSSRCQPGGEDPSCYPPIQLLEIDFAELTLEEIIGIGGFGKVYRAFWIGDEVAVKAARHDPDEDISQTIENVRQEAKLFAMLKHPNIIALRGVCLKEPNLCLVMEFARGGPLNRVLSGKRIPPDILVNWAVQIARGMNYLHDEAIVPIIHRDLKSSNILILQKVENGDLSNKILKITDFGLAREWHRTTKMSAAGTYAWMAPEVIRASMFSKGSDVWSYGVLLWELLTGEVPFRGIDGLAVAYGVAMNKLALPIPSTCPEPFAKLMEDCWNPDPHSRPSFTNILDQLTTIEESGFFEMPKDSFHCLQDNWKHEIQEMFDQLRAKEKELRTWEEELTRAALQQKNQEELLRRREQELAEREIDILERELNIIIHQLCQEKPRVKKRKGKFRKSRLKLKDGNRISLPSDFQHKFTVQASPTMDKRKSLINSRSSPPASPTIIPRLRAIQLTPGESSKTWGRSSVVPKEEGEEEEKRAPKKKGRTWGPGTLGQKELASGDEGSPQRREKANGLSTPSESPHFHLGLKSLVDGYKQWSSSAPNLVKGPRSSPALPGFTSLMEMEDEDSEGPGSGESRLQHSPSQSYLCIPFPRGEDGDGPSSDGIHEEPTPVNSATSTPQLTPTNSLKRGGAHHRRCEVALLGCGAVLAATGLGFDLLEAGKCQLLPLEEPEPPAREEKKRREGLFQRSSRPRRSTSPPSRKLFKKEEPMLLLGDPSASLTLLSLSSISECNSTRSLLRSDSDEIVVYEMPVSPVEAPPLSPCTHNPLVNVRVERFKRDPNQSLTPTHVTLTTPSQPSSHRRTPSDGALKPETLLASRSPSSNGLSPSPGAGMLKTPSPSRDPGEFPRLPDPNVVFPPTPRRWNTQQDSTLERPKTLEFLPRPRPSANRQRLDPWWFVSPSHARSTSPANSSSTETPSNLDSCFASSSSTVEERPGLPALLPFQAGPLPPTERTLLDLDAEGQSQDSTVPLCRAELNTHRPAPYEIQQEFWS

RET(M918T) = RET(M918T) (Homo sapiens, UniProt P07949, M918T)

SMILES	remaining binding at 10 µM (EPHA8)	remaining binding at 10 µM (FER)	remaining binding at 10 µM (CDK9)	remaining binding at 10 µM (PLK3)	remaining binding at 10 µM (MAPKAPK2)	remaining binding at 10 µM [1]	remaining binding at 10 µM (YANK3)	remaining binding at 10 µM (CDC2L5)	remaining binding at 10 µM (HPK1)	remaining binding at 10 µM (CDC2L2)	remaining binding at 10 µM (KIT(V559D))	remaining binding at 10 µM (ALK)	remaining binding at 10 µM (TAOK3)	remaining binding at 10 µM (CSF1R)	remaining binding at 10 µM (ROS1)	remaining binding at 10 µM (PAK7)	remaining binding at 10 µM (NEK11)	remaining binding at 10 µM (KIT(L576P))	remaining binding at 10 µM (MEK1)	remaining binding at 10 µM (SIK2)	further results
COc1ccc(-c2cnccc2-c2cnc(NC(=O)C(C)C)s2)c(C(F)(F)F)c1 [CRT0105446, N-{5-[3-(4-Methoxy-2-trifluoromethyl-phenyl)-pyridin-4-yl]-hiazol-2-yl}-isobutyramide]	100%	100%	28%	97%	100%	86%	100%	14%	100%	59%	39%	89%	96%	51%	100%	95%	100%	36%	87%	78%	remaining binding at 10 µM (BRSK1): 27%; remaining binding at 10 µM (MLK1): 86%; remaining binding at 10 µM (RET(M918T)): 91%
Cc1ccc(-c2cnccc2-c2cnc(Nc3ccc(O)cc3)s2)c(Cl)c1 [CRT0105950, 4-{5-[3-(2-Chloro-4-methyl-phenyl)-pyridin-4-yl]-thiazol-2-ylamino}-phenol]	88%	57%	65%	44%	100%	89%	100%	26%	22%	89%	0.75%	20%	28%	1.2%	100%	93%	84%	0.4%	51%	7.1%	remaining binding at 10 µM (BRSK1): 30%; remaining binding at 10 µM (MLK1): 13%; remaining binding at 10 µM (RET(M918T)): 0.35%
